Like-named read-outs stand apart in the source and are kept apart here. No end group written: not given here. *: point of attachment. FITC = O=C1OC2(c3ccc(O)cc3Oc3cc(O)ccc32)c2ccc(NC(=S)*)cc21; Ahx = NCCCCCC(=O)O
What was measured:
[1] = tested on: H-RasG12V nanoclustering; experiment: H-RasG12V nanoclustering-BRET in HEK cells; assay type: cell-based, human; conditions: peptide added to HEK cells, 0.1 µM to 100 µM, 2 h incubation; donor:acceptor 1:5, 200 ng Gal1 plasmid; n = 3
[2] = tested on: MIA PaCa-2 cells (pERK, pAkt); experiment: Immunoblot of EGF-induced pERK and pAkt in MIA PaCa-2; assay type: cell-based, human; conditions: intermediate concentrations, 2 h
[3] = molecular target: Gal1/B-RBD (Homo sapiens, UniProt P15056); experiment: Gal1/B-RBD BRET in HEK cells; assay type: cell-based; conditions: peptide added to HEK cells, 0.1 µM to 100 µM, 2 h incubation; donor:acceptor 1:10; n ≥ 2
Sequence of Gal1/B-RBD (P15056 155-227): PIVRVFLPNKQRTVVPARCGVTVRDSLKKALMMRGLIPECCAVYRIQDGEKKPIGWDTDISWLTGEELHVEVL

[4] = tested on: Hs 578 T cells (pERK, pAkt); experiment: Immunoblot of EGF-induced pERK and pAkt in Hs 578 T; assay type: cell-based, human; conditions: intermediate concentrations, 2 h
[5] = molecular target: Gal1 (Homo sapiens) (UniProt P09382); conditions: cited from earlier work
[6] = molecular target: Gal1 (Homo sapiens) (UniProt P09382); conditions: cited from earlier work; remark: listed apart in the source
Target sequence in this assay (P09382 2-135): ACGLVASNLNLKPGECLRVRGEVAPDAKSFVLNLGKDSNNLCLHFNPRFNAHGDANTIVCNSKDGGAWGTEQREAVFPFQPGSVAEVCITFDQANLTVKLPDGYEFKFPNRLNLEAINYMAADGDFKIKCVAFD

[7] = tested on: Gal1/C-RBD; experiment: FLIM-FRET Gal1/C-RBD interaction in HEK cells; assay type: cell-based, rat Gal1; C-RBD of human C-Raf; HEK cells; conditions: mGFP-Gal1 / mRFP-C-RBD 1:3, expression (24 h) of plasmid or compound, n = 3
[8] = tested on: HEK cells (pERK, pAkt); assay type: cell-based, human; conditions: 2 h, EGF 200 ng/mL 10 min; n = 3–8
[9] = tested on: His-tagged Gal1; experiment: Competitive fluorescence polarization, displacement of F-L5UR from His-tagged Gal1; assay type: binding; conditions: F-L5UR (5 nM), Gal1 (5 µM); n = 2
[10] = molecular target: B-Raf-derived RBD (BRET construct) (UniProt P15056)
Sequence of B-Raf-derived RBD (BRET construct) (P15056 155-227): as the sequence (P15056 155-227) above

[11] = molecular target: T1, C-Raf-RBD (50-134), purified (human, UniProt P04049 50-134); experiment: fluorescence polarisation; competitive: non-labeled peptides 3-fold diluted, added to a complex of F-L5UR and RBD (methods: 5 nM and 200 nM; legend of Fig. 2e: 10 nM and 15 µM GST-B-RBD); 30 min at ~22 °C; four-parameter fit; conditions: both partners purified
T1 construct: also called C-RBD; source: E. coli, purified (glutathione agarose)

[12] = molecular target: T2, GST-tagged B-Raf-RBD (155-227) (human, UniProt P15056 155-227); experiment: as above; conditions: both partners purified
T2 construct: also called GST-B-RBD; GST-B-Raf-RBD; source: E. coli, purified (glutathione agarose)
T2 sequence (P15056 155-227): as above

[13] = molecular target: T1, C-Raf-RBD (50-134), purified; experiment: as above; conditions: both partners purified; remark: listed apart in the source
[14] = molecular target: T2, GST-tagged B-Raf-RBD (155-227); conditions: both partners purified

GRKKRRQRRRPQ [TAT, 12-residue cell penetrating peptide derived from an HIV-protein, reference compound]
effect of peptide on H-RasG12V nanoclustering BRET [1]: Neither the TAT-peptide alone, nor the mutant TAT-mutL5URcore, or the non-TAT peptides L5URcore and mutL5URcore decreased the BRET-signal in either assay
pERK- and/or pAkt-levels, MIA PaCa-2 [2]: apparently non-specific increase in pERK- and/or pAkt-levels
effect of peptide on Gal1/B-RBD BRET [3]: Neither the TAT-peptide alone, nor the mutant TAT-mutL5URcore, or the non-TAT peptides L5URcore and mutL5URcore decreased the BRET-signal in either assay
pERK- and/or pAkt-levels, Hs 578 T [4]: apparently non-specific increase in pERK- and/or pAkt-levels

Gal1 (from UniProt P09382)
Kd [5]: 7 µM

L5UR peptide 22-45 (from UniProt P15814)
Kd [6]: 310 µM

CN(C)CCNC(=O)COc1c2cccc1Cc1cccc(c1OCC(=O)NCCN(C)C)Cc1cccc(c1OCC(=O)NCCN(C)C)Cc1cccc(c1OCC(=O)NCCN(C)C)C2 [OTX-008]
effect on Gal1/C-RBD FRET [7]: neither Anginex nor OTX-008 disrupted the Gal1/C-RBD interaction

CC(=O)Nc1cccc(-n2c(=O)n(C3CC3)c(=O)c3c(Nc4ccc(I)cc4F)n(C)c(=O)c(C)c32)c1 [trametinib, reference compound]
pAkt levels, HEK [8]: also upregulated by trametinib

Anginex
effect on Gal1/C-RBD FRET [7]: neither Anginex nor OTX-008 disrupted the Gal1/C-RBD interaction
displacement of F-L5UR from Gal1 [9]: it can be displaced from purified His-tagged Gal1

B1: L5UR peptide, untagged, expressed in cells (peptide)
chain: LLRPTAASQSRALGPGAPGGSSRSSLRSRWGRFLLQRGSWTGPRCWPRGFQS
reduction of Gal1-enhanced H-RasG12V nanoclustering-BRET in HEK cells on expression of the construct (it blocks Gal1/B-RBD) [10]: 33%

B2: L5UR peptide, non-labeled (peptide, UniProt P15814 38-89, looked up)
peptide: B1 chain
notes: 52-mer L5UR: residues 38-89 of the unique region of the λ5-chain (λ5-UR) of the pre-B-cell receptor; also called full-length peptide of L5UR; source: synthetic peptide; bought: Pepmic Co., China
IC50 [11]: 4 ± 1 µM
IC50 [12]: 2000 ± 1000 nM

B3: FITC-tagged full-length L5UR (peptide, UniProt P15814 38-89, looked up)
peptide: {FITC-Ahx}-LLRPTAASQSRALGPGAPGGSSRSSLRSRWGRFLLQRGSWTGPRCWPRGFQS
notes: 52-mer L5UR: residues 38-89 of the unique region of the λ5-chain (λ5-UR) of the pre-B-cell receptor; also called F-L5UR; source: synthetic peptide; bought: Pepmic Co., China
binding result [13]: binds
Kd [14]: 7.3 ± 0.7 µM
